Test results reported in ChEMBL document CHEMBL1146738, “Synthesis and glucose-6-phosphatase inhibitory activity of (thiouriedo)alkanoic acid esters” (Bioorg Med Chem Lett, 2004).

Target: T1, Glucose-6-phosphatase catalytic subunit 1 (Rattus norvegicus) (UniProt P43428)
T1 sequence (whole entry): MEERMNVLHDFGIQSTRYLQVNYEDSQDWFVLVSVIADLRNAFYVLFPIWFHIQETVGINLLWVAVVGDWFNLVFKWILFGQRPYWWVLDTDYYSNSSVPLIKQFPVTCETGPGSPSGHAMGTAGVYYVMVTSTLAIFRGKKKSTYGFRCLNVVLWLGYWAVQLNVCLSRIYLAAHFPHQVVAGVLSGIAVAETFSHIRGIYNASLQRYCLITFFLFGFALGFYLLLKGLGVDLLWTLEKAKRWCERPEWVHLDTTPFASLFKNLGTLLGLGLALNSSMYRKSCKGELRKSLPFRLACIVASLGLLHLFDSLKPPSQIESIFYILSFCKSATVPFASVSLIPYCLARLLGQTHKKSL
Experiment: In vitro inhibition of glucose-6-phosphatase obtained from rat was determined at 100 uM concentration

inhibition	SMILES
38.5%	N/N=C(\S)Nc1ccccn1
29%	CCOC(=O)C(Cc1ccccc1)/N=C(\S)Nc1ccccn1 (stereo not given)
74.6%	COC(=O)C/N=C(\S)Nc1ccc(Cl)cn1
17.7%	COC(=O)C(C)/N=C(\S)Nc1ccccn1 (stereo not given)
52.2%	COC(=O)C(Cc1c[nH]c2ccccc12)/N=C(\S)Nc1ccc(Cl)cn1 (stereo not given)
18%	CCOC(=O)CC/N=C(\S)Nc1ccccn1
21.5%	COC(=O)C(Cc1c[nH]c2ccccc12)/N=C(\S)Nc1ccccn1 (stereo not given)
20%	N=C(N)/N=C(\S)Nc1ccccn1
54.4%	CCOC(=O)CC/N=C(\S)Nc1ccc(Cl)cn1
50%	CCOC(=O)C(Cc1ccccc1)/N=C(\S)Nc1ccc(Cl)cn1 (stereo not given)
